From paper PMC10378394 (Current Issues in Molecular Biology, 2023)
Several values for one entry are separate records, joined by “and”; a condition that tells them apart may be missing. Identical values can stand only once.

Experiments:
[1] = biological target: T1, ARAF (Homo sapiens, UniProt P10398); experiment: Eurofins kinase assay
T1 sequence (P10398 1-606): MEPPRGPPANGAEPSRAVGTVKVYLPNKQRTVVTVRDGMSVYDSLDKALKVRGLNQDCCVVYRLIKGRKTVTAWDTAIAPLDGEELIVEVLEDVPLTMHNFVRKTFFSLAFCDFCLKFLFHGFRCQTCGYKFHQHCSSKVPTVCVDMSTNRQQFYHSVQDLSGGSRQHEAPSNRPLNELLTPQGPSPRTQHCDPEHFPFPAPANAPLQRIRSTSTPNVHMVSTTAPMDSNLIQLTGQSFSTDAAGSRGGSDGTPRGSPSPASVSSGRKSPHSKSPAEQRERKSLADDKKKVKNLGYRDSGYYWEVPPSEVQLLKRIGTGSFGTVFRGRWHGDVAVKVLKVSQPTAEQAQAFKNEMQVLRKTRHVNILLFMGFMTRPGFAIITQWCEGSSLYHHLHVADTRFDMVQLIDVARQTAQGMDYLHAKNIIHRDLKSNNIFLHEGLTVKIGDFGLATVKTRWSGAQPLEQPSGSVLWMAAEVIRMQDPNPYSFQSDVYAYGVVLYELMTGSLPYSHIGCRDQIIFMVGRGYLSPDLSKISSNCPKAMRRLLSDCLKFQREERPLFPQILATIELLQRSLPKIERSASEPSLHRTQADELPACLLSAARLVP

[2] = biological target: CDK1/cyclinB(h) (Homo sapiens, UniProt P06493); experiment: Eurofins kinase assay
CDK1/cyclinB(h), sequence (P06493 whole entry): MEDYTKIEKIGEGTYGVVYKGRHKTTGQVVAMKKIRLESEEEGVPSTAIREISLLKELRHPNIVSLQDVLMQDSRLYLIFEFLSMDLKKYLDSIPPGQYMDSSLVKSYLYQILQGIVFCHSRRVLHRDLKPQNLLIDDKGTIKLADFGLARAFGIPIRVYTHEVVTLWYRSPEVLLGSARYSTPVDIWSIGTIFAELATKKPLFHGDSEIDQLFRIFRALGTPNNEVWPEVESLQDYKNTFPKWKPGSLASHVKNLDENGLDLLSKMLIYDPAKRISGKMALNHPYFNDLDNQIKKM
CDK1/cyclinB(h), sequence (P14635 whole entry partner): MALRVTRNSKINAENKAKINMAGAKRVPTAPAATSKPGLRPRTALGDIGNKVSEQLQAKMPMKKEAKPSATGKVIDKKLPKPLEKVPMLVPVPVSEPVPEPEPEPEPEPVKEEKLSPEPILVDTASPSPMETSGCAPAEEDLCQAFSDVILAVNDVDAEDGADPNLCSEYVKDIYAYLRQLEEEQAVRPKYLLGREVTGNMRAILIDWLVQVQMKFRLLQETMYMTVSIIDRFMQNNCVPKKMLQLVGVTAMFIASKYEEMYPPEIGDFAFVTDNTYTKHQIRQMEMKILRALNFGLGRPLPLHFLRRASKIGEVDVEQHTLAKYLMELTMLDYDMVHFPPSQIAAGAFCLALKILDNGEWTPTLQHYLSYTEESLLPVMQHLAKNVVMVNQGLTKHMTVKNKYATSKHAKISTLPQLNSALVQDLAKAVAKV

[3] = biological target: Ros(h) (Homo sapiens, UniProt P08922); experiment: Eurofins kinase assay
[4] = biological target: PKCζ(h) (Homo sapiens, UniProt Q05513); experiment: Eurofins kinase assay
[5] = biological target: cSRC(h) (Homo sapiens, UniProt P12931); experiment: Eurofins kinase assay
[6] = biological target: PKCβII(h) (Homo sapiens, UniProt P05771); experiment: Eurofins kinase assay
[7] = biological target: Met(h) (Homo sapiens, UniProt P08581); experiment: Eurofins kinase assay
[8] = biological target: Yes(h) (Homo sapiens, UniProt P07947); experiment: Eurofins kinase assay
[9] = Pharmacokinetic study; type: in vivo, C57BL/6 mice
Method: Blood samples were collected at each time point for analysis. Plasma samples were analyzed by liquid chromatography–mass spectrometry (LC-MS/MS).

[10] = biological target: CDK6/cyclinD3(h) (Homo sapiens, UniProt Q00534); experiment: Eurofins kinase assay
[11] = Single oral dose, central nervous system; type: in vivo, ICR mice; details: single oral dose 500 mg/kg
[12] = biological target: Rsk1(h) (Homo sapiens, UniProt Q15418); experiment: Eurofins kinase assay
[13] = biological target: BRAF (V600E) (Homo sapiens, UniProt P15056, V600E); experiment: Eurofins kinase assay
[14] = biological target: PKBγ(h) (Homo sapiens, UniProt Q9Y243); experiment: Eurofins kinase assay
[15] = biological target: PDGFRα(h) (Homo sapiens, UniProt P16234); experiment: Eurofins kinase assay
[16] = biological target: PKBα(h) (Homo sapiens, UniProt P31749); experiment: Eurofins kinase assay
PKBα(h), sequence (P31749 whole entry): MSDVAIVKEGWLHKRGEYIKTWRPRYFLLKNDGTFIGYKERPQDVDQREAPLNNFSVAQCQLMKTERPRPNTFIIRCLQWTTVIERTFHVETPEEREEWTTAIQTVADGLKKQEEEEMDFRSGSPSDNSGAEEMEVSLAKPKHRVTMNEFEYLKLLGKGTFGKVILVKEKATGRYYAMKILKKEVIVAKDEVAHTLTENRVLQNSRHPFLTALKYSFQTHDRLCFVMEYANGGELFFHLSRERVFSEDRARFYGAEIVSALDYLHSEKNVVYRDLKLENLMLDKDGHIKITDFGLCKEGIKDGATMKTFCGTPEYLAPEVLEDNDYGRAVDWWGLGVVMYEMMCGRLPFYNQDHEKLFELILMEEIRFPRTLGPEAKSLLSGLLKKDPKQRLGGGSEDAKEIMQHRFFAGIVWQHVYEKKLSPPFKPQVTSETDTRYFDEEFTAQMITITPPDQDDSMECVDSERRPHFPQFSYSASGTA

[17] = biological target: PKCη(h) (Homo sapiens, UniProt P24723); experiment: Eurofins kinase assay
PKCη(h), sequence (P24723 whole entry): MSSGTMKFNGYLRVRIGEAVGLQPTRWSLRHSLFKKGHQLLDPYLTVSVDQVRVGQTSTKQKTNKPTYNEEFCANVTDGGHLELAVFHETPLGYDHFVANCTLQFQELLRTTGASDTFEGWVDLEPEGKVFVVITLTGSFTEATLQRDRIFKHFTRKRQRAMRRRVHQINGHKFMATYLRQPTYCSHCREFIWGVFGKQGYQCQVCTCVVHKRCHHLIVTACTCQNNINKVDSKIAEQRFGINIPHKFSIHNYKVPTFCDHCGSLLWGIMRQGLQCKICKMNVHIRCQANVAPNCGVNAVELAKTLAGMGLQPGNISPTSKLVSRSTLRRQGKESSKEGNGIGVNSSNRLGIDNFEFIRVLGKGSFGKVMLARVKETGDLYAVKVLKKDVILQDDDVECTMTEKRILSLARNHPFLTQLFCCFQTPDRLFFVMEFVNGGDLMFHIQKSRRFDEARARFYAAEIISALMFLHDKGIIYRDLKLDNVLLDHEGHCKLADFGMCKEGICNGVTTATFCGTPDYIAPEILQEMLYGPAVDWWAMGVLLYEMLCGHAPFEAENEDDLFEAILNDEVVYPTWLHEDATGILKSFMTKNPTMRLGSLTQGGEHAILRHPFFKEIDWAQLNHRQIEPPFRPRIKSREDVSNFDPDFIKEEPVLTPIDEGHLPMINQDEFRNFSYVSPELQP

[18] = Tolerability in mouse xenograft experiments; type: in vivo
Method: (§1) Human-derived colorectal cancer cell lines, LS513, HCT-116, and HT29, were subcutaneously transplanted into 6-week-old female BALB/c nude mice to establish tumor models. Additionally, the mouse cancer cell line MC38 was subcutaneously transplanted into 6-week-old female and C57BL/6 mice to induce tumor formation. […]. The treatments were administered orally once daily for 2 weeks based on the growth rate observed in the vehicle group. Tumor volume was evaluated three times a week using the formula Tumor volume (TV) = (tumor short diameter ^2 × tumor long diameter)/2. The body weight of the mice was measured three times a week to assess potential toxicity in vivo. […]

[19] = biological target: PI3Kinase(p110a/p85a)(h) (Homo sapiens, UniProt P42336); experiment: Eurofins kinase assay
[20] = biological target: Flt3(h) (Homo sapiens, UniProt P36888); experiment: Eurofins kinase assay
Flt3(h), sequence (P36888 27-993): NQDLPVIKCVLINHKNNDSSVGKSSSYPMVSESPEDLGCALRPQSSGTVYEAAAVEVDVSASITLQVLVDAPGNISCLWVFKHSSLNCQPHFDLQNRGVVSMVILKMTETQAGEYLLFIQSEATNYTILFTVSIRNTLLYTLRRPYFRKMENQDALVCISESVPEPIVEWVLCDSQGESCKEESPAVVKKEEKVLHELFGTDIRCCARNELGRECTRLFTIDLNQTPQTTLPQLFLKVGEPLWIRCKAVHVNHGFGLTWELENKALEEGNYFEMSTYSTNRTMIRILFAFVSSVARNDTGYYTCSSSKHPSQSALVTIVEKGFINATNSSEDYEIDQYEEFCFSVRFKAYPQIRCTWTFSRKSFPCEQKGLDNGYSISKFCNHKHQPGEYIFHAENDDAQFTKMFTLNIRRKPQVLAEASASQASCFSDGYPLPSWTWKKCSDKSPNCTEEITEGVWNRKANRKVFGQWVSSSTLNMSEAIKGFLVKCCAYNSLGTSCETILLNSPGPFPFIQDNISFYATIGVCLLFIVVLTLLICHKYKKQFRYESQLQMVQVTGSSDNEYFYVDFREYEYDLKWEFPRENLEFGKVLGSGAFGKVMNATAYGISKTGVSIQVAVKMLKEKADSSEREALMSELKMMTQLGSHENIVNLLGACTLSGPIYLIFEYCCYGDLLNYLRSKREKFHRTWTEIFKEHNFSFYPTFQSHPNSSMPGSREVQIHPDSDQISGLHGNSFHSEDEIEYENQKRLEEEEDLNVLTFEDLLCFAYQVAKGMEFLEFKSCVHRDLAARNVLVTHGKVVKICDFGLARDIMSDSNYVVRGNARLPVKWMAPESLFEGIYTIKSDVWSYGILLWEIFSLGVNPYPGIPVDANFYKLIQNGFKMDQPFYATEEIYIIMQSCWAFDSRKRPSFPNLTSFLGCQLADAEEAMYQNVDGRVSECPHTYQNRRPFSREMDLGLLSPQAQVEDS

[21] = biological target: EGFR(h) (Homo sapiens, UniProt P00533); experiment: Eurofins kinase assay
[22] = biological target: PI3Kinase(p110a(E545K)/p85a)(m) (Mus musculus, UniProt P42337, E545K); experiment: Eurofins kinase assay
PI3Kinase(p110a(E545K)/p85a)(m), sequence (P42337 whole entry E545K): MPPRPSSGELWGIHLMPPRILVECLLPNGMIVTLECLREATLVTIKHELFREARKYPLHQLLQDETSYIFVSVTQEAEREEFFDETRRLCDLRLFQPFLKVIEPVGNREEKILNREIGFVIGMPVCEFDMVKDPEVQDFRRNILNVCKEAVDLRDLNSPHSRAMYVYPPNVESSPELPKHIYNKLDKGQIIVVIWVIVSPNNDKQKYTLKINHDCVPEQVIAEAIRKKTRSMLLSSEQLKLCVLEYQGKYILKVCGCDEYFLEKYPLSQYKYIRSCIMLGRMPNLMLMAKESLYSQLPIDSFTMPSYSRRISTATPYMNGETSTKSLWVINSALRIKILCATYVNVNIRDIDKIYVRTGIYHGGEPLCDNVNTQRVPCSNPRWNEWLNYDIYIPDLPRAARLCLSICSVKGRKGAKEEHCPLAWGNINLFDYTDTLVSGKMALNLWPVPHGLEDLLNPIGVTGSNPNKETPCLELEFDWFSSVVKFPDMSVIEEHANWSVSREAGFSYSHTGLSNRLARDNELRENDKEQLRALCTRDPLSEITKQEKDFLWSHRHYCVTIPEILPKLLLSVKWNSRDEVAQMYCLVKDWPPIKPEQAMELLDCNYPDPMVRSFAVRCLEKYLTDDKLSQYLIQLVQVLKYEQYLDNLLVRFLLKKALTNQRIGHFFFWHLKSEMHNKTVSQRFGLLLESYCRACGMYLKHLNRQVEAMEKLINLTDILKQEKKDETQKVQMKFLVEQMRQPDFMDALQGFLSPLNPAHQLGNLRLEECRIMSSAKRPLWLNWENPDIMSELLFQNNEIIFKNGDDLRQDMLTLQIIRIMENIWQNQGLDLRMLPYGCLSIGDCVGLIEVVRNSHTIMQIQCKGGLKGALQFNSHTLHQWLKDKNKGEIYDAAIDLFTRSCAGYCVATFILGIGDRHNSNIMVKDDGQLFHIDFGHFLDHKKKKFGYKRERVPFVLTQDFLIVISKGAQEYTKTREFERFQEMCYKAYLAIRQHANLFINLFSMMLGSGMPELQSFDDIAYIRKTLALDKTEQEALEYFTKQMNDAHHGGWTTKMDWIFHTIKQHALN
PI3Kinase(p110a(E545K)/p85a)(m), sequence (P26450 2-724 partner): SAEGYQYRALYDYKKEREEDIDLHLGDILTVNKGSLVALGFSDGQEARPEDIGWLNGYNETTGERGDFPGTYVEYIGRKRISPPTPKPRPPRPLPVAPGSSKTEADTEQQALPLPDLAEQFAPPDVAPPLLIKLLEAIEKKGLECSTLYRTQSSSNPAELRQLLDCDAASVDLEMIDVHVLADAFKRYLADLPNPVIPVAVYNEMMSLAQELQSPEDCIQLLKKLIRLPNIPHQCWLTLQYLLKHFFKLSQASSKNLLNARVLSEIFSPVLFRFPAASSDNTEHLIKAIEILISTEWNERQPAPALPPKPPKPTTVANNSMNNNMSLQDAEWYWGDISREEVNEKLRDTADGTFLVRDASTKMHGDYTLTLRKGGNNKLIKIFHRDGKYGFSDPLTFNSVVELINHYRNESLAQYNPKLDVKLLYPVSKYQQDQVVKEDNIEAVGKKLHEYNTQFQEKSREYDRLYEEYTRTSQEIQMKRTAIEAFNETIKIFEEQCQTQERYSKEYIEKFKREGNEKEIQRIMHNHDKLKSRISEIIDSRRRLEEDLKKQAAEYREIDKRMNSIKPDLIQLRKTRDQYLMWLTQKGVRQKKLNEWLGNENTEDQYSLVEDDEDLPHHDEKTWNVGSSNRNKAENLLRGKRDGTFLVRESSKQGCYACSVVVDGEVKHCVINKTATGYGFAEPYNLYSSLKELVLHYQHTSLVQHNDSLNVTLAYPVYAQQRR

[23] = biological target: PI3Kinase(p110a(E542K)/p85a)(m) (Mus musculus, UniProt P42337, E542K); experiment: Eurofins kinase assay
PI3Kinase(p110a(E542K)/p85a)(m), sequence (P42337 whole entry E542K): as the sequence (P42337 whole entry E545K) above, with E542K, K545E counted along it
PI3Kinase(p110a(E542K)/p85a)(m), sequence (P26450 2-724 partner): as the sequence (P26450 2-724 partner) above

[24] = system: MC38 syngeneic tumor; experiment: In vivo efficacy, syngeneic model; parameters: species or system C57BL/6 mice; details: 80 mg/kg po QD
Method: as §1

[25] = Single oral dose toxicity study; type: in vivo, Sprague Dawley rats; details: 500 mg/kg oral
[26] = biological target: MEK1(h) (Homo sapiens, UniProt Q02750); experiment: Eurofins kinase assay
[27] = system: IL-10; experiment: Western blot of IL-10; type: in vivo, mouse; details: normalized to β-actin
[28] = male, C57BL/6, mouse, plasma, iv 5 mg/kg
[29] = male, C57BL/6, mouse, plasma, po 40 mg/kg

O=C(Nc1cc(Nc2ncccc2-c2ncnc3[nH]cnc23)ccc1F)c1cc(C(F)(F)F)cc(C(F)(F)F)c1 [SJ-C1044, N-(5-(3-(9H-purin-6-yl)pyridin-2-ylamino)-2-fluorophenyl)-3,5-bis(trifluoromethyl)benzamide]
IC50 [1]: > 10 µM
inhibition at 10 µM ([1]; Table S1 no. 8): 44%
inhibition at 10 µM ([1]; second A-Raf(h) entry, Table S1 no. 62): -6%
inhibition at 10 µM [2]: -10%
inhibition at 10 µM [3]: -12%
inhibition at 10 µM [4]: 1%
inhibition at 10 µM [5]: 38%
inhibition at 10 µM [6]: 10%
inhibition at 10 µM [7]: 13%
inhibition at 10 µM [8]: 17%
sustained plasma concentration ([9]; for 16 h per day, 40 mg/kg once daily, 40 mg/kg): ≥ 8000 ng/mL and ≥ 14 μM
AUC(0-t) [9, 28]: 97.8 µg·h/mL
Cmax [9, 28]: 11400 ng/mL
Tmax [9, 28]: 1.6 h
AUC(0-t) [9, 29]: 228 µg·h/mL
Cmax [9, 29]: 14900 ng/mL
Tmax [9, 29]: 4.3 h
bioavailability [9, 29]: 23%
inhibition at 10 µM [10]: -5%
central nervous system changes [11]: did not result in any abnormal changes
inhibition at 10 µM [12]: 0%
inhibition at 10 µM [13]: 80%
inhibition at 10 µM [14]: 2%
inhibition at 10 µM [15]: -10%
inhibition at 10 µM [16]: 15%
inhibition at 10 µM [17]: 3%
toxicity and weight loss [18]: no signs of toxicity or significant weight loss
inhibition at 10 µM [19]: 23%
inhibition at 10 µM [20]: 3%
inhibition at 10 µM [21]: -4%
inhibition at 10 µM [22]: 20%
inhibition at 10 µM [23]: 24%
TGI ([24]; 14 days): 88%
MC38 tumor growth in vivo ([24]; compared to the control): completely inhibited
single oral dose toxicity [25]: no respiratory effects or signs of toxicity
inhibition at 10 µM [26]: 1%
IL-10 protein expression [27]: 33 % CTL
